Experimental data published in PMC12563087, “Preparation, Stability and In Vitro Antineoplastic Function of Lecithin–Chitosan–Polyethylene Glycol Nanoparticles Loaded with Bioactive Peptides Derived from Phycocyanin” (Foods, 2025).
Ends that are not written are not given here.

What follows are substances tested on pepsin (assay: In vitro simulated gastric digestion (pepsin) of PCPs and PCP-loaded NPs). Details: after 20 min of in vitro simulated gastric digestion by pepsin; mean ± SD.
Type: in vitro ADME

Row | degradation rate | Substance
1 | 77.24% ± 1.72% | MFDAFTK [PCP3]
2 | 78.82% ± 3.46% | AGDASVLEDR [PCP1]
3 | 71.65% ± 2.99% | ADSLLSGLR [PCP2]
